Data published in patent US7419778B2, “Method for high throughput cell-based assays using versatile living microarrays” (PameGene B.V., priority 2002, dated 2008).

System: E. coli XL2 Blue MRF′
Test: Sensitivity of E. coli to kanamycin in agar plugs on flow-through (Pam) substrate, zone of clearing
Format: cell-based
Details: 12 hours at 37° C.
Experimental: […] The porous nature of the substrate draws the molten agar into the pores by capillary action. These treated substrates were then overlaid with 10^6 cfu/ml E. coli XL2 MRF′ cells containing plasmid pUC18 that had been grown in 2TY broth with 100 μg/ml ampicillin and placed on 2TY plates with the same concentration of ampicillin. Plates were then incubated for 12 hours at 37° C.

`NC[C@H]1O[C@H](O[C@H]2[C@H](O)[C@@H](O[C@H]3O[C@H](CO)[C@@H](O)[C@H](N)[C@H]3O)[C@H](N)C[C@@H]2N)[C@H](O)[C@@H](O)[C@@H]1O` [Kanamycin, kanamycin] was tested, and the “Zone of clearing (diameter mm)” value (10 ng kanamycin, N=12) was 0.4 mm, the “Zone of clearing (diameter mm)” value (100 ng kanamycin, N=16) was 2.1 mm and the “Zone of clearing (diameter mm)” value (1000 ng kanamycin, N=12) was 3.5 mm.
